According to paper PMC5074076, “Novel minimal physiologically-based model for the prediction of passive tubular reabsorption and renal excretion clearance” (European Journal of Pharmaceutical Sciences, 2016):
Where two headings read alike, the source gives them in different places.

Experiments:
[1] = LogD6.5 estimated from LogD7.4 and pKa; details: for logD: octanol/buffer
Excerpt: (§1) The pKa values associated with ionisable centres identified within a given drug were used to calculate the fraction of drug ionised at pH 6.5. Drugs were then classified into groups as follows: drugs with > 50% unionised at pH 6.5 were classified as “Neutral”; drugs with > 50% ionised as mono −/di −/tri-protic acids or bases were classified as “Acid” or “Base”, respectively; “Zwitterions” were classified as drugs with > 50% ionised, with the major ionised species having no net charge; all other drugs were classified as amphoteric. […] LogD6.5 for neutral, amphoteric and zwitterion drugs were assumed to be equal to LogD7.4.

[2] = cited from earlier work
[3] = Observed clearance ratio and fraction reabsorbed (Freab, Freab′) calculated from CLR, fu,p and GFR; details: for Freab: observed/apparent, 1 - CLR/(GFR x fu,p), GFR 120 mL/min
Procedure: The clearance ratio was calculated from clinical data using Eqs. […] For the remaining drugs the fraction reabsorbed (Freab) was calculated using Eq.
GFR values for healthy subjects may vary as a result of biological as well as inter-individual variation and also the method of measurement. […] Individual GFR values for subjects in clinical trials databases were generally not available.
In the proposed model, the nephron is represented as five compartments, namely the glomerulus and four tubular regions, as depicted in Fig. 1. The tubular compartments in the model, listed in anatomical order starting from the glomerulus are: the proximal tubule (PT), the loop of Henle (LoH), the distal tubule (DT) and the collecting duct (CD). […] The relationship between Freab′ and Freab is shown in Eq. (11). The predicted overall Freab′ was calculated from the predicted Freab′ in each (i) tubular region (Freab,i′), as shown in Eq. (12).

[4] = Ionisation classification at pH 6.5 from pKa; type: physicochemical; details: predominant species (> 50%) at pH 6.5 from measured or calculated pKa
Excerpt: as §1

[5] = LogD7.4 octanol-buffer, shake-flask (or ACD / BioByte); details: pH 7.4
Excerpt: as §1

[6] = Caco-2 apparent permeability (Papp), apical to basolateral, pH 6.5-7.4 gradient, efflux inhibitor cocktail; details: human, Caco-2, pH 6.5
Procedure: The assay was performed using the apical to basolateral pH gradient format of pH 6.5 to pH 7.4. […] The efflux transporter inhibitor cocktail was used to minimise the effect of efflux transporters expressed in Caco-2 cells (e.g. P-glycoprotein, BCRP and MRP2) on the estimate of apical to basolateral Papp of substrates for such transporters.

[7] = pKa, potentiometric AstraZeneca in-house assay (or ACD / BioByte)
Excerpt: as §1

[8] = healthy adult subjects, overall weighted mean of literature values, absolute (not normalised), ref Supplementary Results Table S2.1
[9] = healthy subjects, plasma and urine data from same subjects, normalised for subject weight and body surface area where necessary, ref Table S2.1
[10] = overall weighted mean of values obtained from a literature survey, ref Table S2.1
[11] = calculated from observed CLR, fu,p and GFR
[12] = pKa (acid), measured, potentiometric
[13] = pKa (base), measured, potentiometric

CC1(C)O[C@@H]2[C@@H](CO[C@@]3(COS(N)(=O)=O)OC(C)(C)O[C@@H]23)O1 [Topiramate]
logD ([1]; pH 6.5): 0.61
CLR [2, 8]: 15.1 mL/min
Overall weighted mean CLR [2, 9]: 15.1 mL/min
CLR Observed [2, 10]: 15.05 mL/min
Apparent Freab [3, 11]: 0.856
Apparent Freab’ [3, 11]: 0.863
Freab [3]: 0.86
Ionisation at pH 6.5 [4]: Neutral
logD ([5]; octanol/buffer): 0.6
Papp A→B at 2 h [6]: 46.2 ×10⁻⁶ cm/s

Cn1c(=O)c2[nH]cnc2n(C)c1=O [Theophylline]
LogD6.5 ([1]; pH 6.5): − 0.06
CLR [2, 8]: 5.50 mL/min
Overall weighted mean CLR [2, 9]: 5.5 mL/min
CLR Observed [2, 10]: 5.50 mL/min
Ionisation at pH 6.5 [4]: Neutral
LogD7.4 [5]: − 0.09

C[C@]12C=CC(=O)C=C1CC[C@@H]1[C@@H]2[C@@H](O)C[C@@]2(C)[C@H]1CC[C@]2(O)C(=O)CO [Prednisolone]
CLR [2, 8]: 34.3 mL/min
Overall weighted mean CLR [2, 9]: 34.3 mL/min
CLR Observed [2, 10]: 34.30 mL/min
Apparent Freab [3, 11]: 0.099
Apparent Freab’ [3, 11]: 0.100
Freab [3]: 0.10
Ionisation at pH 6.5 [4]: Neutral

CC[C@@H](C(N)=O)N1CCCC1=O [Levetiracetam]
CLR [2, 8]: 39.4 mL/min
Overall weighted mean CLR [2, 9]: 39.4 mL/min
CLR Observed [2, 10]: 39.35 mL/min
Apparent Freab [3, 11]: 0.636
Apparent Freab’ [3, 11]: 0.641
Freab [3]: 0.64
Ionisation at pH 6.5 [4]: Neutral
Papp A→B at 2 h [6]: 15.7 ×10⁻⁶ cm/s

CCCN1CCCC[C@H]1C(=O)Nc1c(C)cccc1C [Ropivacaine]
logD ([1]; pH 6.5): 1.27
CLR [2, 8]: 2.73 mL/min
Overall weighted mean CLR [2, 9]: 2.7 mL/min
CLR Observed [2, 10]: 2.73 mL/min
Apparent Freab [3, 11]: 0.547
Apparent Freab’ [3, 11]: 0.552
Freab [3]: 0.55
Ionisation at pH 6.5 [4]: Base
logD [5]: 2.1
Papp A→B at 2 h [6]: 32.3 ×10⁻⁶ cm/s

CN1CCN(c2cc3c(cc2F)c(=O)c(C(=O)O)cn3-c2ccc(F)cc2)CC1 [Difloxacin]
CLR [2, 8]: 4.54 mL/min
Overall weighted mean CLR [2, 9]: 4.5 mL/min
CLR Observed [2, 10]: 4.54 mL/min
pKa [7, 12]: 5.81
pKa [7, 13]: 7.39
Apparent Freab [3, 11]: 0.939
Apparent Freab’ [3, 11]: 0.947
Freab [3]: 0.94
Ionisation at pH 6.5 [4]: Zwitterion
Papp A→B at 2 h [6]: 74.6 ×10⁻⁶ cm/s

CN(C)[C@@H]1C(O)=C(C(N)=O)C(=O)[C@@]2(O)C(O)=C3C(=O)c4c(O)cccc4[C@@](C)(O)[C@H]3C[C@@H]12 [Tetracycline]
CLR [2, 8]: 86.4 mL/min
Overall weighted mean CLR [2, 9]: 86.4 mL/min
CLR Observed [2, 10]: 86.38 mL/min
Apparent Freab [3, 11]: 0.053
Apparent Freab’ [3, 11]: 0.053
Freab [3]: 0.05
Papp A→B at 2 h [6]: 1.1 ×10⁻⁶ cm/s

CC(C)NCC(O)COc1ccc(CC(N)=O)cc1 (stereo not shown) [Atenolol]
Apparent Freab [3, 11]: -0.247
Apparent Freab’ [3, 11]: -0.249
Ionisation at pH 6.5 [4]: Base

CN(C)CCC(c1ccc(Cl)cc1)c1ccccn1 (stereo not shown) [Chlorpheniramine]
Papp A→B at 2 h [6]: 28.5 ×10⁻⁶ cm/s

C[C@H]1C[C@H]2[C@@H]3CCC4=CC(=O)C=C[C@]4(C)[C@@]3(F)[C@@H](O)C[C@]2(C)[C@@]1(O)C(=O)CO [Betamethasone]
logD ([1]; pH 6.5): 1.99
CLR [2, 8]: 9.50 mL/min
Overall weighted mean CLR [2, 9]: 9.5 mL/min
CLR Observed [2, 10]: 9.50 mL/min
Apparent Freab [3, 11]: 0.780
Apparent Freab’ [3, 11]: 0.787
Freab [3]: 0.78
Ionisation at pH 6.5 [4]: Neutral
logD ([5]; octanol/buffer): 1.99

COCCc1ccc(OCC(O)CNC(C)C)cc1 (stereo not shown) [Metoprolol]
CLR [2, 8]: 110 mL/min
Overall weighted mean CLR [2, 9]: 109.6 mL/min
CLR Observed [2, 10]: 109.58 mL/min
pKa [7]: 9.4
Apparent Freab [3, 11]: -0.050
Apparent Freab’ [3, 11]: -0.050
Ionisation at pH 6.5 [4]: Base
Papp A→B at 2 h [6]: 17 ×10⁻⁶ cm/s

Cc1ncc([N+](=O)[O-])n1CCO [Metronidazole]
CLR [2, 8]: 9.64 mL/min
Overall weighted mean CLR [2, 9]: 9.6 mL/min
CLR Observed [2, 10]: 9.64 mL/min
Apparent Freab [3, 11]: 0.918
Apparent Freab’ [3, 11]: 0.925
Freab [3]: 0.92
Ionisation at pH 6.5 [4]: Neutral
Papp A→B at 2 h [6]: 64.7 ×10⁻⁶ cm/s

COc1ccc(C(CN(C)C)C2(O)CCCCC2)cc1 (stereo not shown) [Venlafaxine]
logD ([1]; pH 6.5): 0.05
CLR [2, 8]: 80.0 mL/min
Overall weighted mean CLR [2, 9]: 80.0 mL/min
CLR Observed [2, 10]: 80.00 mL/min
Apparent Freab [3, 11]: 0.088
Apparent Freab’ [3, 11]: 0.089
Freab [3]: 0.09
Ionisation at pH 6.5 [4]: Base
logD [5]: 0.95
Papp A→B at 2 h [6]: 27.6 ×10⁻⁶ cm/s

CCN(CC)CCCN(c1ccccc1)C1Cc2ccccc2C1 [Aprindine]
logD ([1]; pH 6.5): 1.53
CLR [2, 8]: 1.28 mL/min
Overall weighted mean CLR [2, 9]: 1.3 mL/min
CLR Observed [2, 10]: 1.28 mL/min
Apparent Freab [3, 11]: 0.785
Apparent Freab’ [3, 11]: 0.791
Freab [3]: 0.78
Ionisation at pH 6.5 [4]: Base
logD ([5]; octanol/buffer): 2.5
Papp A→B at 2 h [6]: 31.8 ×10⁻⁶ cm/s

N=C(N)c1ccc(CNC(=O)[C@@H]2CCN2C(=O)[C@H](NCC(=O)O)C2CCCCC2)cc1 [Melagatran]
CLR [2, 8]: 114 mL/min
Overall weighted mean CLR [2, 9]: 113.7 mL/min
CLR Observed [2, 10]: 113.74 mL/min
pKa [7, 12]: 2.12
Apparent Freab [3, 11]: -0.021
Apparent Freab’ [3, 11]: -0.021
Ionisation at pH 6.5 [4]: Amphoteric
Papp A→B at 2 h [6]: 0.145 ×10⁻⁶ cm/s

CN(C)CCCC1(c2ccc(F)cc2)OCc2cc(C#N)ccc21 (stereo not shown) [Citalopram]
CLR [2, 8]: 65.2 mL/min
Overall weighted mean CLR [2, 9]: 65.2 mL/min
CLR Observed [2, 10]: 65.17 mL/min
Apparent Freab [3, 11]: -0.086
Apparent Freab’ [3, 11]: -0.087
Ionisation at pH 6.5 [4]: Base

Cc1c(F)c(N2CCNC(C)C2)cc2c1c(=O)c(C(=O)O)cn2C1CC1 (stereo not shown) [Grepafloxacin]
logD ([1]; pH 6.5): 0.5
CLR [2, 8]: 47.6 mL/min
Overall weighted mean CLR [2, 9]: 47.6 mL/min
CLR Observed [2, 10]: 47.60 mL/min
Apparent Freab [3, 11]: 0.350
Apparent Freab’ [3, 11]: 0.353
Freab [3]: 0.35
Ionisation at pH 6.5 [4]: Zwitterion
logD ([5]; octanol/buffer): 0.5
Papp A→B at 2 h [6]: 110 ×10⁻⁶ cm/s

CN(C)CCCN1c2ccccc2CCc2ccccc21 [Imipramine]
pKa [7, 13]: 9.17

COc1c(N2C[C@@H]3CCCN[C@@H]3C2)c(F)cc2c(=O)c(C(=O)O)cn(C3CC3)c12 [Moxifloxacin]
Ionisation at pH 6.5 [4]: Zwitterion

O=C(NCCN1CCOCC1)c1ccc(Cl)cc1 [Moclobemide]
logD ([1]; pH 6.5): 1.34
CLR [2, 8]: 3.42 mL/min
Overall weighted mean CLR [2, 9]: 3.4 mL/min
CLR Observed [2, 10]: 3.42 mL/min
Apparent Freab [3, 11]: 0.943
Apparent Freab’ [3, 11]: 0.951
Freab [3]: 0.94
Ionisation at pH 6.5 [4]: Base
logD ([5]; octanol/buffer): 1.6
Papp A→B at 2 h [6]: 64.4 ×10⁻⁶ cm/s

Nc1ccc(S(=O)(=O)c2ccc(N)cc2)cc1 [Dapsone]
logD ([1]; pH 6.5): 0.85
CLR [2, 8]: 5.50 mL/min
Overall weighted mean CLR [2, 9]: 5.5 mL/min
CLR Observed [2, 10]: 5.50 mL/min
Ionisation at pH 6.5 [4]: Neutral
logD ([5]; octanol/buffer): 0.85
Papp A→B at 2 h [6]: 49.7 ×10⁻⁶ cm/s

C[C@]12C=CC(=O)C=C1CC[C@@H]1[C@@H]2C(=O)C[C@@]2(C)[C@H]1CC[C@]2(O)C(=O)CO [Prednisone]
logD ([1]; pH 6.5): 1.25
CLR [2, 8]: 37.9 mL/min
Overall weighted mean CLR [2, 9]: 37.9 mL/min
CLR Observed [2, 10]: 37.87 mL/min
Apparent Freab [3, 11]: 0.299
Apparent Freab’ [3, 11]: 0.301
Freab [3]: 0.30
Ionisation at pH 6.5 [4]: Neutral
logD ([5]; octanol/buffer): 1.25
Papp A→B at 2 h [6]: 37.3 ×10⁻⁶ cm/s

OC(Cn1cncn1)(Cn1cncn1)c1ccc(F)cc1F [Fluconazole]
CLR [2, 8]: 15.7 mL/min
Overall weighted mean CLR [2, 9]: 15.7 mL/min
CLR Observed [2, 10]: 15.68 mL/min
Apparent Freab [3, 11]: 0.848
Apparent Freab’ [3, 11]: 0.855
Freab [3]: 0.85
Papp A→B at 2 h [6]: 36.3 ×10⁻⁶ cm/s

Cc1cc(=O)n(-c2ccccc2)n1C [Antipyrine]
CLR ([2]; human, in vivo): 1.22 mL/min
CLR Observed ([2]; human, in vivo): 1.22 mL/min
Overall weighted mean CLR ([2]; human, in vivo): 1.2 mL/min
Apparent Freab ([3]; human, in vivo): 0.989
Apparent Freab’ ([3]; human, in vivo): 0.997
Ionisation at pH 6.5 [4]: Neutral

CN(C)CCC=C1c2ccccc2COc2ccccc21 [Doxepin]
logD ([1]; pH 6.5): 1.41
CLR [2, 8]: 9.75 mL/min
Overall weighted mean CLR [2, 9]: 9.8 mL/min
CLR Observed [2, 10]: 9.75 mL/min
Apparent Freab [3, 11]: 0.638
Apparent Freab’ [3, 11]: 0.643
Freab [3]: 0.64
Ionisation at pH 6.5 [4]: Base
logD ([5]; octanol/buffer): 2.23
Papp A→B at 2 h [6]: 36.5 ×10⁻⁶ cm/s
